Reference: patent US20240336610A1, “3CL PROTEASE SMALL-MOLECULE INHIBITOR FOR TREATING OR PREVENTING CORONAVIRUS INFECTION, AND USE THEREOF” (THE GLOBAL HEALTH DRUG DISCOVERY INSTITUTE, priority 2021, published 2024)
Counter-ions that a name gives are not always drawn. Like-named read-outs stand apart in the source and are kept apart here.

What was measured:
[1] = target: SARS-CoV-2 main protease (3CLpro) (Severe acute respiratory syndrome coronavirus 2 (2019-nCoV) (SARS-CoV-2), UniProt P0DTD1); test: Enzyme activity test; format: biochemical; conditions: 200 nM recombinant SARS-CoV-2 main protease, 15 μM fluorescent substrate, pH 7.3
[2] = Oral pharmacokinetics in rats; format: in vivo; conditions: rat, blood, male SD rats, 15 mg/kg
Procedure: Test Example 2: Measurement of Oral Pharmacokinetics in Rats
Male SD rats were orally administered with 15 mg/kg of the compound in the examples of the present disclosure, and blood samples were collected at 0.083, 0.25, 0.5, 1, 2, 4, and 8 hours respectively. After the samples were treated with anticoagulant EDTA-K2 and acetonitrile and centrifuged, a drug concentration analysis was conducted using LC/MS/MS.

SARS-CoV-2 = test: SARS-CoV-2/Hela-ACE test; format: cell-based; conditions: read-out: SAR-CoV-2 EC50
[3] = Toxicity testing in uninfected cells; format: cell-based; conditions: human, uninfected Hela-ACE cells, Cell-Titer Glo
Procedure: (§1) Toxicity Testing in Uninfected Cells
(§2) The compound was transferred to a 1536-well plate (Corning No. 9006BC), and then Hela-ACE cells were added (cell density: 600 cells/5 microliter of medium MEM with 2% FBS). After the assay plate was incubated at 37° C. in 5% CO2 for 48 hours, cell viability was tested. 2 μL of 50% Cell-Titer Glo (Promega No G7573) was diluted in water and added to a cell assay plate, and then a value on En Vision Plate Reader (Perkin Elmer) was read.

Hela-ACE cells = test: Toxicity testing in uninfected cells; format: cell-based; conditions: 48 hours, Cell-Titer Glo
Procedure: as §1, §2

[4] = Severe acute respiratory syndrome coronavirus 2, Hela-ACE cells infected with SARS-CoV-2 (USA-WA1/2020), 48 hours
[5] = Severe acute respiratory syndrome coronavirus 2, 48 h

CC(C)(C)OC(=O)NC(C(=O)N1C[C@H]2[C@@H]([C@H]1C(=O)NC(C#N)c1cncc(Br)c1)C2(C)C)C(C)(C)C (stereo partly drawn) [GDI-001]
IC50 [1]: 80 nM
AUC(0-inf) [2]: 1830 ng·h/mL
AUC(0-t) [2]: 1810 ng·h/mL
Cmax [2]: 630 ng/mL
half-life [2]: 2.34 h
EC50 (SARS-CoV-2; [4]): 462 nM
CC50 at 48 h [3]: > 39800 nM

CC(C)(C)[C@H](N)C(=O)N1C[C@H]2[C@@H]([C@H]1C(=O)NC(C#N)c1cncc(Br)c1)C2(C)C (stereo partly drawn) [GDI-002, (1R,2S,5S)-3-((S)-2-amino-3,3-dimethylbutyryl)-N-((5-bromopyridin-3-yl)(cyano)methyl)-6,6-dimethyl-3-azabicyclo[3.1.0]he xane-2-carboxamide formate]
IC50 [1]: 320 nM
EC50 (SARS-CoV-2; [5]): 7860 nM
CC50 at 48 h [3]: > 39800 nM

CC(=O)N[C@H](C(=O)N1C[C@H]2[C@@H]([C@H]1C(=O)NC(C#N)c1cncc(Br)c1)C2(C)C)C(C)(C)C (stereo partly drawn) [GDI-003, (1R,2S,5S)-3-((S)-2-acetamido-3,3-dimethylbutyryl)-N-((5-bromopyridin-3-yl)(cyano)methyl)-6,6-dimethyl-3-azabicyclo[3.1.0]he xane-2-carboxamide]
IC50 [1]: 50 nM
EC50 (SARS-CoV-2; [4]): 1250 nM
CC50 at 48 h [3]: > 39800 nM

CC(=O)N[C@H](C(=O)N1C[C@H]2[C@@H]([C@H]1C(=O)NC(C#N)c1cncc(C)c1)C2(C)C)C(C)(C)C (stereo partly drawn) [GDI-005, (1R,2S,5S)-3-((S)-2-acetamido-3,3-dimethylbutyryl)-N-(cyano(5-methylpyridin-3-yl)methyl)-6,6-dimethyl-3-azabicyclo[3.1.0]hex ane-2-carboxamide]
IC50 [1]: 80 nM
EC50 (SARS-CoV-2; [4]): 117 nM
CC50 at 48 h [3]: > 39800 nM

CC(=O)N[C@H](C(=O)N1C[C@H]2[C@@H]([C@H]1C(=O)NC(C#N)c1cncc3ccccc13)C2(C)C)C(C)(C)C (stereo partly drawn) [GDI-006, (1R,2S,5S)-3-((S)-2-acetamido-3,3-dimethylbutyryl)-N-(cyano(isoquinolin-4-yl)methyl)-6,6-dimethyl-3-azabicyclo[3.1.0]hexane-2-carboxamide]
IC50 [1]: 28 nM
AUC(0-inf) [2]: 1700 ng·h/mL
AUC(0-t) [2]: 1690 ng·h/mL
Cmax [2]: 2170 ng/mL
half-life [2]: 0.875 h
EC50 (SARS-CoV-2; [4]): 28 nM
CC50 at 48 h [3]: > 39800 nM

CC(=O)N[C@H](C(=O)N1C[C@H]2[C@@H]([C@H]1C(=O)NC(C#N)c1cncc(C(F)(F)F)c1)C2(C)C)C(C)(C)C (stereo partly drawn) [GDI-007, (1R,2S,5S)-3-((S)-2-acetamido-3,3-dimethylbutanol)-N-(cyano(5-(trifluoromethyl)pyridin-3-yl)methyl)-6,6-dimethyl-3-azabicyclo [3.1.0]hexane-2-carboxamide]
IC50 [1]: 170 nM
EC50 (SARS-CoV-2; [4]): 512 nM
CC50 at 48 h [3]: > 39800 nM

COc1cncc(C(C#N)NC(=O)[C@@H]2[C@@H]3[C@H](CN2C(=O)[C@@H](NC(C)=O)C(C)(C)C)C3(C)C)c1 (stereo partly drawn) [GDI-008, (1R,2S,5S)-3-((S)-2-acetamido-3,3-dimethylbutyryl)-N-(cyano(5-methoxypyridin-3-yl)methyl)-6,6-dimethyl-3-azabicyclo[3.1.0]he xane-2-carboxamide]
IC50 [1]: 37 nM
EC50 (SARS-CoV-2; [4]): 417 nM
CC50 at 48 h [3]: > 39800 nM

CC(=O)N[C@H](C(=O)N1C[C@H]2[C@@H]([C@H]1C(=O)NC(C#N)c1cncc(C#N)c1)C2(C)C)C(C)(C)C (stereo partly drawn) [GDI-010, (1R,2S,5S)-3-((S)-2-acetamido-3,3-dimethylbutyryl)-N-(cyano(5-cyanopyridin-3-yl)methyl)-6,6-dimethyl-3-azabicyclo[3.1.0]hexane-2-carboxamide]
IC50 [1]: 330 nM
EC50 (SARS-CoV-2; [4]): 5720 nM
CC50 at 48 h [3]: > 39800 nM

CC(C)(C)[C@H](NC(=O)C(F)(F)F)C(=O)N1C[C@H]2[C@@H]([C@H]1C(=O)NC(C#N)c1cncc(Br)c1)C2(C)C (stereo partly drawn) [GDI-011, (1R,2S,5S)-N-((5-bromopyridin-3-yl) (cyano)methyl)-3-((S)-3,3-dimethyl-2-(2,2,2-trifluoroacetylamino)butyryl)-6,6-dimethyl-3-aza bicyclo[3.1.0]hexane-2-carboxamide]
IC50 [1]: 78 nM
AUC(0-inf) [2]: 3470 ng·h/mL
AUC(0-t) [2]: 3450 ng·h/mL
Cmax [2]: 1870 ng/mL
half-life [2]: 1.05 h
EC50 (SARS-CoV-2; [5]): 613 nM
CC50 at 48 h [3]: > 39800 nM

Cc1ccc(S(=O)(=O)N[C@H](C(=O)N2C[C@H]3[C@@H]([C@H]2C(=O)NC(C#N)c2cncc(C(F)(F)F)c2)C3(C)C)C(C)(C)C)cc1 (stereo partly drawn) [GDI-016, (1R,2S,5S)-N-(cyano(5-(trifluoromethyl)pyridin-3-yl)methyl)-3-((S)-3,3-dimethyl-2-((4-methylphenyl)sulfonamido)butanoyl)-6,6-dimet hyl-3-azabicyclo[3.1.0]hexane-2-carboxamide]
IC50 [1]: 31 nM
EC50 (SARS-CoV-2; [4]): 32 nM
CC50 at 48 h [3]: > 39200 nM

CC(=O)N[C@H](C(=O)N1C[C@H]2[C@@H]([C@H]1C(=O)N[C@H](C#N)c1cncc3ccccc13)C2(C)C)C(C)(C)C [GDI-036]
IC50 [1]: 20 nM
EC50 (SARS-CoV-2; [4]): 20 nM
CC50 at 48 h [3]: > 39800 nM

CC(=O)N[C@H](C(=O)N1C[C@H]2[C@@H]([C@H]1C(=O)N[C@@H](C#N)c1cncc3ccccc13)C2(C)C)C(C)(C)C [GDI-037]
IC50 [1]: 40 nM
EC50 (SARS-CoV-2; [4]): 30 nM
CC50 at 48 h [3]: > 39800 nM

(1R,2S,5S)-N-(cyano(5-(3-methyl-1,2,4-oxadiazol-5-yl)pyridin-3-yl)methyl)-3-(S)-3,3-dimethyl-2-(2,2,2-trifluoroacetylamino) butyryl)- 6,6-dimethyl-3-azabicyclo[3.1.0]hexane-2-carboxamide [GDI-017]
IC50 [1]: 46 nM
EC50 (SARS-CoV-2; Hela-ACE cells infected with SARS-CoV-2 (USA-WA1/2020), 48 hours): 660 nM
CC50 (Hela-ACE cells): > 39800 nM
